The values below come from PMC3358306 (PLoS ONE, 2012).

In the experiment the target is T1, afRio1 (Rio1 kinase) (Archaeoglobus fulgidus, UniProt O28471).
T1 construct: full-length
The experiment in a line: thermal shift (Thermofluor), Tm […] to […] °C. It counts as binding. For orientation: Differential scanning fluorimetry follows unfolding on heating by fluorescence.

T1 sequence (O28471 whole entry): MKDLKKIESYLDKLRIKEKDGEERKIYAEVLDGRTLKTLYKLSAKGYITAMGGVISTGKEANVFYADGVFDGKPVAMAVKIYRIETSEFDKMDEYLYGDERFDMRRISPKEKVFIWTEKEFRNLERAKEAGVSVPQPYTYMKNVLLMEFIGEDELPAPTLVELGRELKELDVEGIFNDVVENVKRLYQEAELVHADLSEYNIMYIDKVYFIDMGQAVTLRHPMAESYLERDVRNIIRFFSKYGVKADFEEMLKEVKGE

In the case of `NC(=O)c1cn([C@@H]2O[C@H](CO)[C@@H](O)[C@H]2O)c2ncnc(N)c12` [sangivamycin], the “thermal shift (Thermofluor), Tm 76 to 82 °C” value was 82 °C.
